According to the supplement of paper PMC5908809:

Key:
[1] = system: SNK-6 (IL-2 2.5 ng/mL); assay: relative IC50 (inflection point of fitted viability curve, relative to fitted max inhibition); higher = less sensitive; conditions: 72 h
Experimental: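 Drug sensitivity and resistance testing: 5 concentrations over a 10,000-fold range, 72 h at 37 °C, viability by CellTiter-Glo normalised to DMSO and benzethonium chloride controls. IC50 is the inflection point of a logistic fit (min fixed at 0, max fitted), so it is relative to the fitted maximal inhibition. Kept only where fitted max inhibition is at least 50%.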

[2] = system: normal NK cells expanded with K562-aAPC; assay: percent inhibition of viability; higher = more inhibition; conditions: 72 h, IL-2 2.5 ng/mL
Experimental: (§1)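 Drug sensitivity and resistance testing on K562-aAPC-expanded normal NK cells: 5 concentrations (10-fold steps over a 10,000-fold range), 72 h at 37 °C, viability by CellTiter-Glo normalised to DMSO and benzethonium chloride controls; DSS from the fitted curve.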

[3] = system: DERL-7 (IL-2 2.5 ng/mL); assay: as above; conditions: 72 h
[4] = system: IMC-1 (IL-2 20 ng/mL); assay: as above; conditions: 72 h
[5] = system: KAI3 (IL-2 2.5 ng/mL); assay: as above; conditions: 72 h
[6] = system: KHYG-1 (IL-2 2.5 ng/mL); assay: as above; conditions: 72 h
[7] = system: NK-92 (IL-2 2.5 ng/mL); assay: as above; conditions: 72 h
[8] = system: NK-YS (IL-2 2.5 ng/mL); assay: as above; conditions: 72 h
[9] = system: NKL (IL-2 2.5 ng/mL); assay: as above; conditions: 72 h
[10] = system: SNK-6 (IL-2 2.5 ng/mL); assay: as above; conditions: 72 h
[11] = system: YT (IL-2 2.5 ng/mL); assay: as above; conditions: 72 h
[12] = system: normal primary NK cells, pool 1 (3 donors) (IL-2 2.5 ng/mL); assay: as above; conditions: 72 h
[13] = system: normal primary NK cells, pool 1 (3 donors), resting (IL-2 0 ng/mL); assay: as above; conditions: 72 h
[14] = system: normal primary NK cells, pool 2 (3 donors) (IL-2 2.5 ng/mL); assay: as above; conditions: 72 h
[15] = system: normal primary NK cells, pool 3 (3 donors) (IL-2 2.5 ng/mL); assay: as above; conditions: 72 h
[16] = system: normal NK cells expanded with K562-aAPC; assay: drug sensitivity score (DSS) (DSS units); higher = more sensitive; extreme values may be limits of the assay; conditions: 72 h; IL-2 2.5 ng/mL
Experimental: as §1

[17] = system: DERL-7 (IL-2 2.5 ng/mL); assay: as above; conditions: 72 h
[18] = system: IMC-1 (IL-2 20 ng/mL); assay: as above; conditions: 72 h
[19] = system: KAI3 (IL-2 2.5 ng/mL); assay: as above; conditions: 72 h
[20] = system: KHYG-1 (IL-2 2.5 ng/mL); assay: as above; conditions: 72 h
[21] = system: NK-92 (IL-2 2.5 ng/mL); assay: as above; conditions: 72 h
[22] = system: NK-YS (IL-2 2.5 ng/mL); assay: as above; conditions: 72 h
[23] = system: NKL (IL-2 2.5 ng/mL); assay: as above; conditions: 72 h
[24] = system: SNK-6 (IL-2 2.5 ng/mL); assay: as above; conditions: 72 h
[25] = system: YT (IL-2 2.5 ng/mL); assay: as above; conditions: 72 h
[26] = system: normal primary NK cells, pool 1 (3 donors) (IL-2 2.5 ng/mL); assay: as above; conditions: 72 h
[27] = system: normal primary NK cells, pool 1 (3 donors), resting (IL-2 0 ng/mL); assay: as above; conditions: 72 h
[28] = system: normal primary NK cells, pool 2 (3 donors) (IL-2 2.5 ng/mL); assay: as above; conditions: 72 h
[29] = system: normal primary NK cells, pool 3 (3 donors) (IL-2 2.5 ng/mL); assay: as above; conditions: 72 h

Oc1ncc(N(CCCl)CCCl)c(O)n1 [Uracil mustard]
Conditions	relative IC50 [µM]
[1]	> 10

O=C(O)CC1CC(c2ccccc2)=NO1 (stereo not given) [VGX-1027] (max concentration tested 10000 nM)
percent inhibition of viability [%]
Conditions	1 nM	10 nM	100 nM	1000 nM	10000 nM
[2]	-7.12	-7.03	0.76	6.38	14.7
[3]	0.25	-1.69	-4.26	-3.18	-6.46
[4]	0.5	0.17	6.38	5.66	15.5
[5]	-6.5	-1.11	1.3	12.6	35.1
[6]	0.61	-5.96	-1.03	3.73	20
[7]	-3.95	-4.08	-2.12	11.7	26.6
[8]	-1.78	-5.47	0.49	4.16	16.7
[9]	-7.13	-10.2	1.01	15.5	23.6
[10]	-0.72	-26.7	-22.3	-7.03	3.07
[11]	-2.93	-7	-1.39	5.41	20.1
[12]	-3.12	16.9	11.2	17.1	11.4
[13]	3.76	20.2	15.6	10.9	5.12
[14]	-4.95	7.51	2.82	7.55	7.46
[15]	-13.4	4.04	5.21	2.93	6.93

Conditions	drug sensitivity score
[16]	0.56
[17]	0
[18]	0.28
[19]	3.28
[20]	1.09
[21]	2.51
[22]	0.79
[23]	2.41
[24]	0
[25]	1.27
[26]	4.99
[27]	0
[28]	0
[29]	0
